Data on 88 compounds can be found in a melting point compilation (Tetko et al.; mined from patent text by program, amines drawn as free bases though some values may be those of a salt).

Molecules are shown by their SMILES. Where only a bound is given, the exact number is not on record here.

As for `CCOC(=O)CCCOc1cccc(Oc2nc(OC)cc(OC)n2)c1C=NNc1ccc(Cl)cc1`, the melting point turned out to be 139 °C.

Compound `CCCCCCCCCCCCCCCc1cccc(OC)c1C1NC(=O)NC(C)=C1C(=O)OCC` (stereo not drawn) showed a melting point of 91 to 93 °C.

As for `COC(=O)c1ccccc1NC(=O)c1ccc(OC)cc1`, the melting point lay within 122 to 124 °C.

Compound `Cn1c(-c2c(Cl)cccc2Cl)nc2cc(C(=O)O)ccc21` had a melting point greater than 250 °C.

With `O=C(Nc1ccc2c(c1)OC=C1CN(C(=O)OCc3ccccc3)C=CN12)OCc1ccccc1`, the melting point lay in the range of 118 to 120 °C.

Turning to `Nc1ncc2cc(-c3c(Cl)cccc3Cl)c(=O)n(Cc3ccccc3)c2n1`, the melting point was 220 to 222 °C.

In turn, `CCOC(=O)C1=C(COCCN(C)S(C)(=O)=O)NC(C)=C(C(=O)OC)C1c1ccccc1Cl` (stereo not drawn) displayed a melting point of 93 to 95 °C.

Turning to `CCCc1c(OCC(O)COc2ccc(C(=O)O)cc2Cl)ccc(C(C)=O)c1O` (stereo not drawn), the melting point was in the range of 100 to 103 °C.

On to `COc1ccccc1OCCOS(C)(=O)=O`, for which the melting point was in the range of 73 to 76 °C.

The compound `CC(=O)OC1CSC(Oc2cncc(-c3cncnc3)c2)C(OC(C)=O)C1OC(C)=O` (stereo not drawn) registered a melting point of 213 to 217 °C.

Take `Cc1onc(-c2ccc(Cl)cc2)c1CO`: the melting point fell in the range of 94 to 95 °C.

Regarding `Cc1cc2cc(CN3CCCCCC3)cnc2cc1NC(=O)c1ccc(-c2ccc(Cl)s2)cc1`, the melting point is 180 °C.

As to `CS(=O)c1ccc(COS(C)(=O)=O)cc1` (stereo not drawn), the melting point lay within 63 to 65 °C.

For `COc1cccc(N2CCN(C[C@H](CC3CCCCC3)NC(=O)C3CCCCC3)CC2)n1`, the melting point lay in the range of 107 to 109 °C.

`CC1CCN(Cc2cccc(OCCCNc3nc(N)nn3C)c2)CC1` returned a melting point of 133 to 134 °C.

`CC(C)(C)OC(=O)N1CCN(C(=O)c2nc3c(N)nc(N)nc3nc2N)CC1` showed a melting point of 245 to 250 °C.

As for `CC1CCc2c(cc(-c3ccccc3)n2-c2ccc(O)c(C(=O)O)c2)C1` (stereo not drawn), the melting point is 213 to 215 °C.

In turn, `NC(=NCCc1ccccn1)Nc1ccc(Br)cn1` returned a melting point of 139 to 141 °C.

On to `COC(=O)CCn1cnc2c(Cl)ncnc21`, for which the melting point stood at 93.5 °C.

Regarding `CC(=O)Nc1ccc(F)c(-c2cccnc2)c1F`, the melting point fell in the range of 154 to 155 °C.

In turn, `ClCCCCCCCCOc1ccc2ccccc2c1` displayed a melting point of 35 °C.

In the case of `CON=C(C)c1ccc(NS(C)(=O)=O)c(Oc2ccc(F)cc2F)c1`, the melting point lay in the range of 118 to 120 °C.

On to `CC(=O)c1cccc(NC(=O)c2nnnn2Cc2ccccc2)c1O`, for which the melting point was in the range of 155 to 157 °C.

For the compound `O=C(O)C(Cc1ccc2c(c1)OCO2)Cc1ccc2c(c1)OCO2`, the melting point lay within 191 to 193 °C.

Compound `CC(C)C1(C)NC(c2ncc(Br)cc2C(=O)O)=NC1=O` (stereo not drawn) yielded a melting point of 206 to 208 °C.

Consider `CN(C(=O)c1ccc2nonc2c1)C1CCN(C=O)CC1`, for which the melting point was in the range of 163 to 165 °C.

Compound `Cc1[nH]c2ccccc2c1CCCN1CCC(c2noc3cc(Cl)ccc23)CC1` showed a melting point of 108 to 110 °C.

Take `O=C(CCc1ccc(I)cc1)Cn1ccnc1`: the melting point lay within 124 to 125 °C.

For the compound `Cn1cc(C(=O)NCc2ccc(Cl)cc2)c(=O)c2cc(I)sc21`, the melting point is 236 to 237 °C.

Compound `CNC(=O)ON(C(=O)NC)C(=O)C(C)(C)C` gave a melting point of 117 to 119 °C.

The compound `CCOC(=O)Cn1c(=O)[nH]c(=O)c2ccccc21` displayed a melting point of 249 to 250 °C.

In the case of `O=c1cc(NCCN2CCN(c3ccccc3F)CC2)cn[nH]1`, the melting point was in the range of 103 to 105 °C.

Compound `COc1ccc(C=CC2=NNC(C)Cc3cc(OC)c(OC)cc32)c(OC)c1` (stereo not drawn) yielded a melting point of 118 to 120 °C.

In the case of `CCCn1c(=O)c2c(NC)n[nH]c2n(Cc2ccc(Cl)cc2)c1=O`, the melting point lay in the range of 305 to 307 °C.

The compound `CCc1oc2ccccc2c1C(=O)c1cc(Br)c(OS(=O)(=O)c2ccc(C(=O)O)c(O)c2)c(Br)c1` had a melting point of 173 °C.

Consider `CCOP(=O)(Cc1ccc(-c2ccccc2)cc1)OCC`, for which the melting point is 55 to 58 °C.

On to `CCNc1nnc2ccc(-c3cccc(N(CC)C(=O)CC)c3)nn12`, for which the melting point was in the range of 164 to 166 °C.

The compound `CN1C(=O)CC[C@]2(C)c3ccc(-c4ccccc4[N+](=O)[O-])cc3CC[C@@H]12` had a melting point of 130 to 131 °C.

`COc1ccccc1OCCCc1nc(-c2ccc(Cl)cc2)co1` yielded a melting point of 94 to 95 °C.

In turn, `CN=C(ON1C(=O)CCC1=O)c1ccccc1` registered a melting point of 119 to 120 °C.

`CC(C)Nc1nc(N)c(C(=O)NC(N)=S)nc1Cl`: the melting point stood at 195 °C.

`COc1cc(C(=O)Nc2c(C)cc3cn(C(=O)OC(C)(C)C)nc3c2C(=O)NC(C)C)n(N2C=CC=C(Cl)C2)n1` came in with a melting point of 161 to 162 °C.

Turning to `COc1cc2c(cc1Nc1ncc(Cl)c(Nc3ccccc3OC)n1)CCN(C(=O)CN(C)C)CC2`, the melting point lay in the range of 76 to 99 °C.

The compound `N#CC(C(N)=S)=C(N)N1CCCC1` had a melting point of 164 °C.

`CCC(=O)Nc1c(C(=O)c2ncccc2CO)[nH]c2cc(Cl)ccc12` registered a melting point of 198 to 199 °C.

Regarding `COc1ccc2c(c1)C(=O)C(Cc1nccs1)CO2` (stereo not drawn), the melting point fell in the range of 71 to 73 °C.

Compound `O=C(Nc1ccccn1)C(CC1CCCC1)c1ccc(S(=O)(=O)C(F)(F)F)cc1` (stereo not drawn) gave a melting point of 58 to 62 °C.

In turn, `Cc1cc2nc(NC(=O)NCCN3CCOCC3)sc2cc1OC(C)c1c(Cl)ccc(F)c1Cl` (stereo not drawn) had a melting point of 270 to 276 °C.

For the compound `O=C(CCCCC(=O)Oc1ccc(N=Nc2ccccc2)cc1)Oc1ccc(N=Nc2ccccc2)cc1`, the melting point lay in the range of 176 to 177 °C.

As to `CCc1[nH]n(C2CCCC2)c2nc(Cc3ccc(OC(=O)c4ccc(CN(CC)CC)cc4)cc3)nc(=O)c1-2`, the melting point lay in the range of 143 to 145 °C.

As for `COc1cc(C)nc(NC(=O)NS(=O)(=O)c2ccsc2C(=O)N2CCCC2=O)n1`, the melting point fell in the range of 184 to 185 °C.

For `COc1ccc(Cc2ccc(Sc3ccccc3)s2)cc1`, the melting point is 92 to 93 °C.

Take `CCOC(=O)C(=CNc1csnn1)C(=O)c1cc(F)c(Cl)nc1Cl`: the melting point was in the range of 110 to 114 °C.

Compound `COc1cc(NC(=O)CN2CCN(c3ncccc3C#N)CC2)cc(OC)c1OC` registered a melting point of 123 to 124 °C.

With `COC(=O)Nc1nc(OC)cc(OC)n1`, the melting point was 81 to 83 °C.

For `COc1cccc2cc(C(=O)c3ccc(Cl)c(S(=O)(=O)Cl)c3)oc12`, the melting point fell in the range of 143 to 145 °C.

Consider `O=C(Cc1ccncc1)[N+]1([O-])CCC(=C2c3ccc(Cl)cc3CCc3cccnc32)CC1` (stereo not drawn), for which the melting point lay within 128 to 130 °C.

In turn, `N#Cc1cccc(C(F)(F)F)c1O` displayed a melting point of 134 °C.

Take `O=C(Nc1ccc(Oc2ccnc(NCC3CCCO3)n2)c2ccccc12)c1cc(F)cc(N2CCOCC2)c1` (stereo not drawn): the melting point fell in the range of 103 to 105 °C.

`CCCCCCCC(=O)NCc1ccsc1`: the melting point lay in the range of 71 to 72 °C.

`O=C1COc2ccc(C3=Nc4ccccc4SC3c3ccccc3Cl)cc2N1` (stereo not drawn) yielded a melting point of 195 to 200 °C.

The compound `O=c1c2ccccc2nc(-c2sc(Nc3ccccc3)nc2-c2ccccc2)n1-c1ccccc1Cl` yielded a melting point of 210 to 212 °C.

In turn, `O=C(Nc1ccc(SC(F)(F)F)cc1)c1cc(Cl)c2ccccc2c1O` came in with a melting point of 172 to 175 °C.

Take `COc1ccc(-c2[nH]c3ccc(OCc4ccccc4)cc3c2C)cc1`: the melting point worked out at 158 °C.

As to `CN(CCOc1ccccc1C(N)=O)CCc1ccc([N+](=O)[O-])cc1`, the melting point was in the range of 116 to 118 °C.

Compound `O=C(C=Cc1cccc(F)c1F)c1cnc2sc3c(n12)CCCCC3` registered a melting point of 193 to 195 °C.

Turning to `CCCCn1cc(-c2nnnn2C)c(=O)c2ccccc21`, the melting point was 100 to 105 °C.

For the compound `CC=CC(=O)Oc1ccc(Nc2ccccc2)cc1`, the melting point fell in the range of 73 to 76 °C.

`Cc1cc(OCc2cn(-c3ccc(C(F)(F)F)cn3)nc2C)ccc1CCC(=O)O` came in with a melting point of 144 to 145 °C.

With `O=C(O)c1coc2c(Cl)cc(Cl)cc2c1=O`, the melting point was 196 °C.

In the case of `Cc1cc(Br)c(C=O)c2ccccc12`, the melting point was determined as 93 °C.

Regarding `CCCn1c(COCC)nc2c(N)nc3ccc(OCC(=O)N4CCS(=O)(=O)CC4)cc3c21`, the melting point was in the range of 223 to 225 °C.

With `O=C(NCCCCCCOC(=O)N1CCC2(CCCC2)CC1)OC1CCN(C(=O)Oc2ccc3oc4ccccc4c3c2)CC1`, the melting point was in the range of 100 to 102 °C.

As for `CC(=O)Nc1c(Cl)c(C(C)(C)C)nn1-c1c(Cl)cc(C(F)(F)F)cc1Cl`, the melting point turned out to be 211 °C.

On to `O=C(NCc1ccccc1Br)c1ccc2cnccc2n1`, for which the melting point was in the range of 129 to 130 °C.

The compound `CCc1cccc(NC(=O)C(C#N)=C(C)N(C)C)c1` returned a melting point of 98 to 100 °C.

As for `CCOC(=O)C1=C(C)NC(COC(=O)c2ccccc2)=C(C(=O)OCC)C1c1ccccc1[N+](=O)[O-]` (stereo not drawn), the melting point fell in the range of 156 to 157 °C.

In turn, `CCCc1cn(Cc2ccc(C(=O)OC)cc2OC)c2cc(C=C(C)C(=O)O)ccc12` showed a melting point of 167 to 169 °C.

For the compound `CC(=O)OC1=CCc2c(Oc3ccc(NC(=O)c4ccc(Cl)c(Cl)c4)cn3)cccc21`, the melting point fell in the range of 161 to 164 °C.

Compound `CN1CCN(C2CCN(c3ncc4ncnc(Nc5ccc(F)c(Cl)c5)c4n3)CC2)CC1` had a melting point of 163 to 165 °C.

The compound `Cn1ncc2cc(NC(=O)Nc3ccc(C(F)(F)F)cc3)ccc21` yielded a melting point of 252 to 254 °C.

`Cc1cccc(CN2CCN(C(c3ccc(Cl)cc3)c3cccc(OCC(=O)O)c3)CC2)c1` (stereo not drawn) registered a melting point of 114 to 120 °C.

`CC(C)(C)c1ccc(C(=O)NNS(=O)(=O)c2ccccc2)cc1` registered a melting point of 197 to 199 °C.

`Nc1ncc2cc(-c3c(Cl)cccc3Cl)c(N)nc2n1`: the melting point lay in the range of 325 to 332 °C.

For the compound `N#Cc1c(OCC(F)(F)F)nc(N)nc1N1CCc2ccccc2CC1`, the melting point was in the range of 145 to 147 °C.

Compound `Clc1nc(Cl)nc(Nc2ccc(OCc3ccccc3)c(Cl)c2)n1` registered a melting point of 145 °C.

The compound `CC(C#Cc1ccc(F)cc1)N(O)C(N)=O` (stereo not drawn) displayed a melting point of 156 to 158 °C.

Turning to `CCSc1nnc(S)n1N`, the melting point was determined as 172 °C.

The melting point is the temperature of the solid-liquid transition.
